{
  "source": "patent US20140242093A1",
  "about": "“METHODS AND COMPOSITIONS FOR MODULATING THE INNATE IMMUNE RESPONSE AND/OR MYOGENESIS IN A MAMMALIAN SUBJECT” (FRED HUTCHINSON CANCER RESEARCH CENTER, priority 2011, published 2014)",
  "tested_on": "control human primary myoblasts",
  "assay": "Expression microarray of primary myoblasts transduced with lentivirus carrying DUX4-fl, DUX4-s or GFP",
  "details": "log2 fc vs lenti-GFP, 24 h",
  "protocol": "Primary human myoblasts were collected and cultured as previously described (Snider et al., 2010). Primary myoblasts were maintained at or below 70% confluency for proliferation. For differentiation, cells were allowed to reach 95-100% confluency in growth medium. Once confluency was reached, the cells were changed to differentiation medium (F10 media supplemented with 1% horse serum, 10 μg/mL insulin, and 10 μg/mL transferrin, penicillin/streptomycin) and maintained for 4 days. Human RD cells were grown in DMEM in 10% bovine calf serum (Hyclone) and penicillin/streptomycin. The primary myoblasts were transduced with lentivirus carrying DUX-fl, DUX4- or GFP (MOI=15).\nExpression microarrays were performed on the transduced cells at 24 hours after transduction as follows. […] Samples were analyzed by Illumina Human Whole Genome microarrays. Probe intensities were corrected, normalized, and summarized by the Lumi package of Bioconductor (Du et al., 2008). Differentially expressed genes were identified by the LIMMA package of Bioconductor (Wettenhall and Smyth, 2004). Gene set enrichment analysis (GSEA) was performed using the Bioconductor GOstats package (Falcon and Gentleman, 2007).",
  "data": [
    {"substance": "DUX4-fl: full-length DUX4 protein (SEQ ID NO:110), expressed from lentiviral or pCS2 vectors or in vitro translated", "values": [
      {"measurement": "full_fc ART3", "result": 4.363},
      {"measurement": "full_fc C6orf148", "result": 6.759},
      {"measurement": "full_fc C12orf50", "result": 4.522},
      {"measurement": "full_fc CA2", "result": 6.091},
      {"measurement": "full_fc CCNA1", "result": 7.526},
      {"measurement": "full_fc CSAG3", "result": 5.871},
      {"measurement": "full_fc DEFB103A", "result": 6.442},
      {"measurement": "full_fc ENTPD8", "result": 4.073},
      {"measurement": "full_fc HBA1", "result": 4.787},
      {"measurement": "full_fc HBA2", "result": 4.721},
      {"measurement": "full_fc HIST2H3A", "result": 4.945},
      {"measurement": "full_fc KHDC1L", "result": 8.012},
      {"measurement": "full_fc LOC136157", "result": 8.299},
      {"measurement": "full_fc LOC196120", "result": 8.179},
      {"measurement": "full_fc LOC284428", "result": 8.023},
      {"measurement": "full_fc LOC340096", "result": 7.382},
      {"measurement": "full_fc LOC340970", "result": 8.316},
      {"measurement": "full_fc LOC342900", "result": 7.391},
      {"measurement": "full_fc LOC390031", "result": 8.331},
      {"measurement": "full_fc LOC391742", "result": 5.733},
      {"measurement": "full_fc LOC391764", "result": 5.821},
      {"measurement": "full_fc LOC391766", "result": 5.724},
      {"measurement": "full_fc LOC391767", "result": 5.492},
      {"measurement": "full_fc LOC391769", "result": 8.19},
      {"measurement": "full_fc LOC399939", "result": 6.931},
      {"measurement": "full_fc LOC399940", "result": 4.727},
      {"measurement": "full_fc LOC401860", "result": 4.272},
      {"measurement": "full_fc LOC402199", "result": 4.392},
      {"measurement": "full_fc LOC402207", "result": 4.903},
      {"measurement": "full_fc LOC440040", "result": 7.534},
      {"measurement": "full_fc LOC440563", "result": 5.312},
      {"measurement": "full_fc LOC441584", "result": 7.781},
      {"measurement": "full_fc LOC642127", "result": 6.112},
      {"measurement": "full_fc LOC642148", "result": 6.851},
      {"measurement": "full_fc LOC642219", "result": 4.799},
      {"measurement": "full_fc LOC642362", "result": 8.016},
      {"measurement": "full_fc LOC643263", "result": 8.345},
      {"measurement": "full_fc LOC643445", "result": 8.25},
      {"measurement": "full_fc LOC645558", "result": 4.803},
      {"measurement": "full_fc LOC645669", "result": 8.202},
      {"measurement": "full_fc LOC646066", "result": 4.391},
      {"measurement": "full_fc LOC646103", "result": 4.658},
      {"measurement": "full_fc LOC646698", "result": 6.012},
      {"measurement": "full_fc LOC646754", "result": 5.11},
      {"measurement": "full_fc LOC647827", "result": 4.053},
      {"measurement": "full_fc LOC651308", "result": 8.169},
      {"measurement": "full_fc LOC653192", "result": 8.228},
      {"measurement": "full_fc LOC653656", "result": 7.897},
      {"measurement": "full_fc LOC653657", "result": 7.857},
      {"measurement": "full_fc LOC654101", "result": 5.034},
      {"measurement": "full_fc LOC729368", "result": 5.416},
      {"measurement": "full_fc LOC729384", "result": 6.832},
      {"measurement": "full_fc LOC729458", "result": 8.247},
      {"measurement": "full_fc LOC729516", "result": 5.955},
      {"measurement": "full_fc LOC729694", "result": 4.029},
      {"measurement": "full_fc LOC729700", "result": 4.817},
      {"measurement": "full_fc LOC729706", "result": 4.227},
      {"measurement": "full_fc LOC729731", "result": 5.007},
      {"measurement": "full_fc LOC730974", "result": 7.715},
      {"measurement": "full_fc LOC732393", "result": 4.637},
      {"measurement": "full_fc LOC100131392", "result": 6.976},
      {"measurement": "full_fc LOC100131539", "result": 4.629},
      {"measurement": "full_fc LOC100133446", "result": 4.635},
      {"measurement": "full_fc LOC100133984", "result": 6.204},
      {"measurement": "full_fc LOC100134006", "result": 7.087},
      {"measurement": "full_fc LOC100134199", "result": 8.048},
      {"measurement": "full_fc MBD3L2", "result": 7.623},
      {"measurement": "full_fc NP", "result": 6.961},
      {"measurement": "full_fc NXF1", "result": 4.233},
      {"measurement": "full_fc OR2T34", "result": 4.519},
      {"measurement": "full_fc PPP2R2B", "result": 4.13},
      {"measurement": "full_fc PRAMEF1", "result": 8.072},
      {"measurement": "full_fc PRAMEF2", "result": 6.439},
      {"measurement": "full_fc PRAMEF4", "result": 7.06},
      {"measurement": "full_fc PRAMEF5", "result": 7.35},
      {"measurement": "full_fc PRAMEF6", "result": 5.826},
      {"measurement": "full_fc PRAMEF7", "result": 7.631},
      {"measurement": "full_fc PRAMEF9", "result": 7.131},
      {"measurement": "full_fc PRAMEF10", "result": 6.064},
      {"measurement": "full_fc PRAMEF11", "result": 5.94},
      {"measurement": "full_fc PRAMEF12", "result": 7.802}
    ]}
  ]
}
